Two compounds from ChEMBL document CHEMBL1131830, “Total synthesis of the potent proteasome inhibitor epoxomicin: a useful tool for understanding proteasome biology” (Bioorg Med Chem Lett, 1999) can be followed below.

For the test, the system named is Proteasome. The experiment in a line: Inhibitory activity against 20S proteosome. The class given is subcellular.

Compound `CC[C@H](C)[C@H](NC(=O)[C@H]([C@@H](C)CC)N(C)C(C)=O)C(=O)N[C@H](C(=O)N[C@@H](CC(C)C)C(=O)[C@@]1(C)CO1)[C@@H](C)O` returned a k obs / 1 of 37200 M⁻¹ s⁻¹. Consider `CC[C@@H](C)[C@H](NC(=O)[C@H]([C@@H](C)CC)N(C)C(C)=O)C(=O)N[C@H](C(=O)N[C@@H](CC(C)C)C(=O)[C@@]1(C)CO1)[C@@H](C)O`, for which the k obs / 1 was 246 M⁻¹ s⁻¹.
